According to US20250122207A1, “AP2 ASSOCIATED KINASE 1 INHIBITORS AND USES THEREOF” (Satellos Bioscience Inc., priority 2023, published 2025):
Where two headings read alike, the source gives them in different places.

What was measured:
[1] = molecular target: T1, AAK1 (amino acids T27-A365) (Homo sapiens, UniProt Q2M2I8); experiment: AAK1 pSENs assay; assay type: biochemical
T1 construct: against AAK1 (amino acids T27-A365); 6His (N, cleaved yes)
Method: (§1) The recombinant proteins were independently expressed in Escherichia coli BL21(DE3) cells cultured in Luria-Bertani (LB) medium until OD600 reached 0.6-0.8, then cooled to 15° C. and supplemented with 0.5 mM isopropyl 1-thio-D-galactopyranoside (IPTG) induce protein expression 16 h. Cells were harvested and resuspended in lysis buffer (50 mM HEPES pH 7.5, 500 mM NaCl, 5 mM imidazole, 5% glycerol, 0.5 mM Tris (2-carboxyethyl) phosphine (TCEP), cOmplete Protease Inhibitor Tablet (Roche)) and lysed by microfludics high pressure homogenizer (UH-06, Union-Biotech). Proteins were purified using […] chromatography (His FF column, Bestchrom) and eluted stepwise in binding buffer with 20-300 mM imidazole. Removal of the hexahistidine tag was performed at 4° C. overnight using recombinant TEV protease and reacted with BirA to obtain the corresponding biotinylated-AAK1, BIKE or GAK proteins. Further separated in the reverse Strep column (Strep-Tactin® XT, IBA). The Biotin elution sample was collected containing untagged biotinylated protein was then purified by Ion-exchange chromatography (Mono Q 10/100 GL, Cytiva) and Size-exclusion chromatography (HiLoad 16/600 Superdex 200 pg, Cytiva). The pure protein was stored in a storage buffer 50 mM HEPES (pH 7.5), 300 mM NaCl, 5% glycerol at −80° C. Protein were characterized by SDS-PAGE, LC-MS and aSEC.
(§2) This example describes one illustrative method for determining the IC50 of the compounds of the present invention against AAK1 (amino acids T27-A365). AAK1 protein was dissolved at 20 nM in 1× enzyme solution (50 mM HEPES pH7.5, 10 mM MgCl2, 1 mM DTT, 1% glycerol, 0.5 mM EGTA, 0.01% Briji35, 0.02% BSA) and 12.5 ul was incubated with 250 nl DMSO or 250 nl compound in DMSO at 25° C. for 15 min. The reaction was started by addition of 12.5 ul of 30 uM AQT0759 (Assayquant, CSKS-AQT0759B) and 70 uM ATP which were diluted in 1× substrate dilution buffer (50 mM HEPES pH7.5, 10 mM MgCl2, 1 mM DTT, 1% glycerol, 0.5 mM EGTA, 0.01% Briji35).

AAK1 = AAK1 (Homo sapiens, UniProt Q2M2I8); experiment: pAP2M1 cell-based assay (in-cell Western)
Sequence of AAK1 (Q2M2I8 whole entry): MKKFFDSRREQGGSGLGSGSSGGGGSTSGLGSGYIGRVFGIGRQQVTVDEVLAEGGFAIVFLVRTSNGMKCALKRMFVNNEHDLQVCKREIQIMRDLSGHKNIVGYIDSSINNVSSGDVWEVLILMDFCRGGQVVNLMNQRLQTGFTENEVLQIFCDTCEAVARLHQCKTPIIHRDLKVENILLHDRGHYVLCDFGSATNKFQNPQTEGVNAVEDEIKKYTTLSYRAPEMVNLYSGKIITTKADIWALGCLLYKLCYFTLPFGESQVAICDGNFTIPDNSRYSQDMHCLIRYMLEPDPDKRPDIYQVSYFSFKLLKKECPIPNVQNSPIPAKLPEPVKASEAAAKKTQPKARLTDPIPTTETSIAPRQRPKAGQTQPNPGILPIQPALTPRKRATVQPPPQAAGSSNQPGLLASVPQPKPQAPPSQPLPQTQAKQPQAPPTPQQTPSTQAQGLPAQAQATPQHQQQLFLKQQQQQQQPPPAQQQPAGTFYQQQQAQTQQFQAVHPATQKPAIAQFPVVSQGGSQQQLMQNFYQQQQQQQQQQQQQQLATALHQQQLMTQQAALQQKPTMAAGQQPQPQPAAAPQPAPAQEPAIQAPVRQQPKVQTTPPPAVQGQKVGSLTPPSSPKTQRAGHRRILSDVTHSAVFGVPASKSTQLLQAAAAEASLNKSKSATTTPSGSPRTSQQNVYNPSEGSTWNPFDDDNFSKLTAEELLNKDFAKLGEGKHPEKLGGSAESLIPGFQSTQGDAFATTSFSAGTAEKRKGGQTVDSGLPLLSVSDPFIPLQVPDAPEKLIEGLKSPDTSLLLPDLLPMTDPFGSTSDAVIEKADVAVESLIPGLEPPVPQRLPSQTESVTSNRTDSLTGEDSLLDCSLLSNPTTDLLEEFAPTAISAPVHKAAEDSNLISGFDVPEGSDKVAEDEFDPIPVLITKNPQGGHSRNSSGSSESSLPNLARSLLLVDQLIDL
Source text: pAP2M1 Cell-Based Assay (in-Cell Western):
The plate was read on Licor Odyssey CLx imaging system (LICOR) to acquire fluorescence intensity at 700 channel and 800 channel.
Data analysis: Fluorescence intensity at 700 channel served as internal standard and 800 channel were normalized with 700 channel.

[2] = molecular target: T2, BIKE (amino acids S38-E345) (K320A, K321A) (Homo sapiens, UniProt Q9NSY1, K320A/K321A); experiment: BIKE pSENs assay; assay type: biochemical
T2 construct: against BIKE (amino acids S38-E345) (K320A, K321A); 6His (N, cleaved yes)
T2 sequence (Q9NSY1 38-345 K320A/K321A): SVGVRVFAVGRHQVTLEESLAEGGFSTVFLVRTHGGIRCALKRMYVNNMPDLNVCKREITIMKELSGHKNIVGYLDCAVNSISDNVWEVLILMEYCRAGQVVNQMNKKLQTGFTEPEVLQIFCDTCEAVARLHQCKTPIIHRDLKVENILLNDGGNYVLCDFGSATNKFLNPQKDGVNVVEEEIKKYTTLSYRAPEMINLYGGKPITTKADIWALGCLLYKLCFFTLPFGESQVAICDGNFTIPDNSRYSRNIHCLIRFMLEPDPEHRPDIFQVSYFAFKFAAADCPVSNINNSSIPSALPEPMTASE
Method: as §1
as §2, with “BIKE” for “This example describes one illustrative method for determining the IC50 of the compounds of the present invention against AAK1 (amino acids T27-A365). AAK1”, “40” for “70”

[3] = class symbols, read-out: AAK1 pSENs: EIC50
[4] = Hela cells co-transfected with AP2M1 and AAK1, 3 hr treatment, class symbols, read-out: AAK1 In-cell Western: IC50
[5] = class symbols, read-out: BIKE pSENs: IC50

T1 sequence (Q2M2I8 27-365): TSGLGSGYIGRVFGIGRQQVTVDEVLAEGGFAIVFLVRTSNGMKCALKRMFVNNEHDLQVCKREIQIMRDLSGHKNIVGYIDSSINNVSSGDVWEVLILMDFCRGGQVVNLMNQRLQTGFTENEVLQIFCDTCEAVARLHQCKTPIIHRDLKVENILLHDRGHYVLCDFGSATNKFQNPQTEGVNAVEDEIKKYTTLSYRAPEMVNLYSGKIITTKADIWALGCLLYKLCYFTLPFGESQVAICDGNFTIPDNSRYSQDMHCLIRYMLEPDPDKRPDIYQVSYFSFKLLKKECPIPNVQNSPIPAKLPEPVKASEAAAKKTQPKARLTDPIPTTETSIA

| SMILES | IC50 [1, 3] [nM] | IC50 (AAK1; [4]) [nM] | IC50 [2, 5] [nM] | IC50 [1] [nM] | IC50 [2] [nM] | IC50 (AAK1) [nM] |
| --- | --- | --- | --- | --- | --- | --- |
| O=C1C[C@H](OC(=O)N2CCN(c3ccn4ncc(-c5cccnc5OC5CC5)c4n3)CC2)CN1CCO [Compound I-38, [(3S)-1-(2-Hydroxyethyl)-5-oxo-pyrrolidin-3-yl]-4-[3-[2-(cyclopropoxy)-3-pyridyl]pyrazolo[1,5-a]pyrimidin-5-yl]piperazine-1-carboxylate] | 1 to 50 | > 1500 | 151 to 500 | – | – | – |
| CN(CCNc1ccn2ncc(-c3cccnc3OC3CN(C(=O)OC(C)(C)C)C3)c2n1)C(=O)OC(C)(C)C [Compound I-62, Tert-butyl3-[[3-[5-[2-[tert-butoxycarbonyl(methyl)amino]ethylamino]pyrazolo[1,5-a]pyrimidin-3-yl]-2-pyridyl]oxy]azetidine-1-carboxylate] | 1 to 50 | > 1500 | 151 to 500 | – | – | – |
| COCCN1C[C@@H](OC(=O)N2CCN(c3ccn4ncc(-c5cc(F)cnc5OC5CC5)c4n3)CC2)CC1=O [Compound I-89] | 1 to 50 | 501 to 1500 | 151 to 500 | – | – | – |
| CC1(OC(=O)N2CCN(c3ccn4ncc(-c5cccnc5OC5COC5)c4n3)CC2)COC1 [Compound I-18, (3-Methyloxetan-3-yl)-4-[3-[2-(oxetan-3-yloxy)-3-pyridyl]pyrazolo[1,5-a]pyrimidin-5-yl]piperazine-1-carboxylate] | 1 to 50 | 151 to 500 | 501 to 1500 | – | – | – |
| CC1(OC(=O)N2CCN(c3ccn4ncc(-c5cccnc5OC5CC5)c4n3)CC2)COC1 [Compound I-2, (3-methyloxetan-3-yl)-4-[3-[2-(cyclopropoxy)-3-pyridyl]pyrazolo[1,5-a]pyrimidin-5-yl]piperazine-1-carboxylate] | 1 to 50 | 51 to 150 | 151 to 500 | – | – | – |
| CC(C)Oc1ncccc1-c1cnn2ccc(N3CCN(C(=O)O[C@@H]4CNC(=O)C4)CC3)nc12 [Compound I-26, [(3S)-5-Oxopyrrolidin-3-yl]-4-[3-(2-isopropoxy-3-pyridyl)pyrazolo[1,5-a]pyrimidin-5-yl]piperazine-1-carboxylate] | 1 to 50 | 501 to 1500 | 501 to 1500 | – | – | – |
| C[C@@]1(OC(=O)N2CCN(c3ccn4ncc(-c5cccnc5OC5CC5)c4n3)CC2)CCN(CCO)C1 [Compound I-52, [(3R)-1-(2-hydroxyethyl)-3-methyl-pyrrolidin-3-yl]-4-[3-[2-(cyclopropoxy)-3-pyridyl]pyrazolo[1,5-a]pyrimidin-5-yl]piperazine-1-carboxylate] | 1 to 50 | 151 to 500 | 501 to 1500 | – | – | – |
| CC(C)N1C[C@@H](OC(=O)N2CCN(c3ccn4ncc(-c5cccnc5OC5CC5)c4n3)CC2)CC1=O [Compound I-114, [(3S)-1-isopropyl-5-oxo-pyrrolidin-3-yl]-4-[3-[2-(cyclopropoxy)-3-pyridyl]pyrazolo[1,5-a]pyrimidin-5-yl]piperazine-1-carboxylate] | 51 to 150 | > 1500 | 501 to 1500 | – | – | – |
| CN1C[C@@H](OC(=O)N2CCN(c3ccn4ncc(-c5cc(F)cnc5OC5CC5)c4n3)CC2)CC1=O [Compound I-86] | 1 to 50 | 151 to 500 | 151 to 500 | – | – | – |
| CN1C[C@@H](OC(=O)N2CCN(c3ccn4ncc(-c5cccnc5OC5CCOC5)c4n3)CC2)CC1=O (stereo partly drawn) [Compound I-119, [(3S)-1-methyl-5-oxo-pyrrolidin-3-yl]4-[3-(2-tetrahydrofuran-3-yloxy-3-pyridyl)pyrazolo[1,5-a]pyrimidin-5-yl]piperazine-1-carboxylate] | 51 to 150 | > 1500 | 501 to 1500 | – | – | – |
| O=C1C[C@H](OC(=O)N2CCN(c3ccn4ncc(-c5cccnc5OC5COC5)c4n3)CC2)CN1 [Compound I-25, [(3S)-5-Oxopyrrolidin-3-yl]4-[3-[2-(oxetan-3-yloxy)-3-pyridyl]pyrazolo[1,5-a]pyrimidin-5-yl]piperazine-1-carboxylate] | 1 to 50 | > 1500 | 151 to 500 | – | – | – |
| CC(=O)N1CC(Oc2ncccc2-c2cnn3ccc(N4CCN(C(=O)O[C@@H]5CNC(=O)C5)CC4)nc23)C1 [Compound I-59, (S)-5-oxopyrrolidin-3-yl 4-(3-(2-((1-acetylazetidin-3-yl)oxy)pyridin-3-yl)pyrazolo[1,5-a]pyrimidin-5-yl)piperazine-1-carboxylate] | 1 to 50 | > 1500 | 501 to 1500 | – | – | – |
| C[C@@H]1CN(c2ccn3ncc(-c4cccnc4OC4CC4)c3n2)CCN1C(=O)O[C@@H]1CNC(=O)C1 [Compound I-39, [(3S)-5-oxopyrrolidin-3-yl]-(2R)-4-[3-[2-(cyclopropoxy)-3-pyridyl]pyrazolo[1,5-a]pyrimidin-5-yl]-2-methyl-piperazine-1-carboxylate] | 1 to 50 | 501 to 1500 | 151 to 500 | – | – | – |
| [2H]C([2H])([2H])N1C[C@@H](OC(=O)N2CCN(c3ccn4ncc(-c5cccnc5OC5CC5)c4n3)CC2)CC1=O [Compound I-113, [(3S)-5-oxo-1-(trideuteriomethyl)pyrrolidin-3-yl]4-[3-[2-(cyclopropoxy)-3-pyridyl]pyrazolo[1,5-a]pyrimidin-5-yl]piperazine-1-carboxylate] | – | 151 to 500 | – | 1 to 50 | 501 to 1500 | – |
| COCCN1C[C@@H](OC(=O)N2CCN(c3ccn4ncc(-c5cccnc5OC5CC5)c4n3)CC2)CC1=O [Compound I-115, [(3S)-1-(2-methoxyethyl)-5-oxo-pyrrolidin-3-yl]-4-[3-[2-(cyclopropoxy)-3-pyridyl]pyrazolo[1,5-a]pyrimidin-5-yl]piperazine-1-carboxylate] | 1 to 50 | 501 to 1500 | 501 to 1500 | – | – | – |
| O=C(O[C@H]1CO[C@H]2OCC[C@H]21)N1CCN(c2ccn3ncc(-c4cccnc4OC4CC4)c3n2)CC1 [Compound I-27, [(3aS,4R,6aR)-2,3,3a,4,5,6a-hexahydrofuro[2,3-b]furan-4-yl]-4-[3-[2-(cyclopropoxy)-3-pyridyl]pyrazolo[1,5-a]pyrimidin-5-yl]piperazine-1-carboxylate] | 1 to 50 | 151 to 500 | 151 to 500 | – | – | – |
| CN1C[C@@H](OC(=O)N2CCN(c3nc4c(-c5cccnc5OC5CCCC5)cnn4cc3F)CC2)CC1=O [Compound I-121, [(3S)-1-methyl-5-oxo-pyrrolidin-3-yl]-4-[3-[2-(cyclopentoxy)-3-pyridyl]-6-fluoro-pyrazolo[1,5-a]pyrimidin-5-yl]piperazine-1-carboxylate] | 51 to 150 | > 1500 | 501 to 1500 | – | – | – |
| CN1C[C@@H](OC(=O)N2CCN(c3nc4c(-c5cccnc5OC5CC5)cnn4cc3F)CC2)CC1=O [Compound I-109, [(3S)-1-methyl-5-oxo-pyrrolidin-3-yl]4-[3-[2-(cyclopropoxy)-3-pyridyl]-6-fluoro-pyrazolo[1,5-a]pyrimidin-5-yl]piperazine-1-carboxylate] | 1 to 50 | 151 to 500 | 51 to 150 | – | – | – |
| CC(C)Oc1ncccc1-c1cnn2ccc(N3CCN(C(=O)OC4(C)COC4)CC3)nc12 [Compound I-1, (3-methyloxetan-3-yl)-4-[3-(2-isopropoxy-3-pyridyl)pyrazolo[1,5-a]pyrimidin-5-yl]piperazine-1-carboxylate] | – | – | 501 to 1500 | 51 to 150 | – | 501 to 1500 |
| CN1C[C@@H](OC(=O)N2CCN(c3nc4c(-c5cccnc5OC5CCOC5)cnn4cc3F)CC2)CC1=O (stereo partly drawn) [Compound I-120, [(3S)-1-methyl-5-oxo-pyrrolidin-3-yl]4-[6-fluoro-3-(2-tetrahydrofuran-3-yloxy-3-pyridyl)pyrazolo[1,5-a]pyrimidin-5-yl]piperazine-1-carboxylate] | 51 to 150 | > 1500 | 151 to 500 | – | – | – |
